Measured values: patent US7212853B1 (priority 1996, dated 2007)

Experiment: Transdermal electrotransport delivery of goserelin at current densities of 50 and 100 μA/cm^2 (Example 3)
Assay type: in vivo, human
Conditions: for average transdermal goserelin flux: 8 hours, 12 volunteers
Description: This study was undertaken to evaluate the relationship between current density and drug flux in the transdermal electrotransport delivery of goserelin. The study involved the application of electrotransport devices, applying constant current, to 12 normal male volunteers for a duration of 8 hours.
The two electrotransport treatment regimens in this study differed only in applied current density levels. The electrotransport devices delivered goserelin through the skin from polyvinyl alcohol (PVOH)-based donor hydrogels having a skin-contact surface area of 4 cm^2. The gels contained an aqueous goserelin solution. The current density levels used in this study were 50 and 100 μA/cm^2. After an 8 hour treatment period, the electrotransport devices were removed. The skin site was then washed to remove any residual goserelin. All 12 volunteers received each treatment seven days apart.
For each treatment, seven blood samples were taken over a 24 hour period commencing with the application of current from the electrotransport devices. Serum goserelin concentrations from each patient were used to calculate mean drug flux and the mean total amount of drug delivered.

SMILES: CC(C)C[C@H](NC(=O)[C@@H](COC(C)(C)C)NC(=O)[C@H](Cc1ccc(O)cc1)NC(=O)[C@H](CO)NC(=O)[C@H](Cc1c[nH]c2ccccc12)NC(=O)[C@H](Cc1cnc[nH]1)NC(=O)[C@@H]1CCC(=O)N1)C(=O)N[C@@H](CCCNC(=N)N)C(=O)N1CCC[C@H]1C(=O)NNC(N)=O [goserelin]
- average transdermal goserelin flux (50 μA/cm^2, constant current): 5.8 µg/h
- average transdermal goserelin flux (100 μA/cm^2, constant current): 21.6 µg/h
- increase in drug flux (current density rises from 50 to 100 μA/cm^2): four
